One data set has as its system human erythrocytes. In words: Hemolysis assay. It counts as cell-based. The method in brief: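 Peptoid serial dilutions in PBS pH 7.4 were combined with an equal volume of 20 vol % washed human red cells (heparinised blood) for 1 h at 37 °C. After dilution and pelleting at 1200 g, released haemoglobin in supernatant was read at A350, scaled between PBS and 0.2 vol % Triton X-100 controls.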

Data set [1] is described as follows: MTS assay, metabolic inhibition. The data set is classed as cell-based, mouse. The method in brief:
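NIH/3T3 cells seeded at 5,000 per well, grown a day, then exposed to serially diluted peptoids in HBSS together with MTS reagent. Absorbance at 490 nm read after 3 hours at 37° C.; mean of six replicates.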
A general note: Tetrazolium dyes change colour on reduction, which living cells bring about.

Data set [2] relates to Enterobacter aerogenes ATCC 35029. It counts as cell-based. The protocol: (§1) Antibacterial assays. MICs were determined according to CLSI M7-A6 protocols in a 96-well microtiter plate. In test wells, 50 μL bacterial inoculum (5×10^5 CFU/ml) in Mueller-Hinton broth (MHB) was added to 50 μL peptoid solution in MHB (prepared by 1:2 serial dilutions). Positive controls contained 50 μL inoculum and 50 μL MHB without peptoid. […] MIC values reported were reproducible between three independent experimental replicates, each consisting of two parallel trials. Broad-spectrum antimicrobial susceptibility testing was performed against BSL2 pathogens by Nova Biologicals, Inc. (Conroe, Tex.).
(§2) Broad-spectrum antibacterial assays. MICs of compounds were determined by microdilution procedure in Mueller-Hinton broth (MHB) in accordance with CLSI M7-A6 protocols in a manner similar to that described for the screen antibacterial assays. Inoculated microtiter plates were incubated at 35° C. for 24 hours prior to the result being recorded. Four ATCC strains that were used as standards are recommended by CLSI: Pseudomonas aeruginosa ATCC 27853, Escherichia coli ATCC 25922, Staphylococcus aureus ATCC 29213 and Enterococcus faecalis ATCC 29212. Other strains from the ATCC collection include Proteus vulgaris ATCC 49132, Proteus mirabilis ATCC 35659, Klebsiella pneumoniae ATCC 33495, Enterobacter aerogenes ATCC 35029 and Serratia marcescens ATCC 13880. S. aureus NRS100 (COL) is a well characterized methicillian-resistant S. aureus (MRSA) strain. The strains S. aureus VAN1 and S. aureus VAN2, vancomycin-resistant MRSA strains that were isolated in Michigan and Pennsylvania, were the first vancomycin-resistant strains clinically isolated. S. aureus NRS119 and S. aureus NRS120 are linezolid-resistant isolates from the Network on Antimicrobial Resistance in S. aureus (NARSA) collection. E. faecalis 99 and E. faecium 106 are vancomycin-resistant enterococcal strains.

For the next data set, the system named is Enterococcus faecalis 99. It counts as cell-based. As to the method: as §1, §2
Another data set has as its system Enterococcus faecium 106. It counts as cell-based. The protocol: as §1, §2
For data set [3], the system named is Proteus mirabilis ATCC 35659. The data set is classed as cell-based. The following applies: ATCC 35659. The protocol: as §1, §2
Data set [4] has as its system Proteus vulgaris ATCC 49132. It counts as cell-based. As to the method:
as §1, §2

Data set [5] deals with Pseudomonas aeruginosa ATCC 27853. It counts as cell-based. The protocol:
as §1, §2

Data set [6] relates to Serratia marcescens ATCC 13880. It counts as cell-based. The following applies: ATCC 13880. As to the method: as §1, §2
Data set [7] concerns Staphylococcus aureus ATCC 29213. It counts as cell-based. The protocol: as §1, §2
Data set [8] relates to Staphylococcus aureus NRS100 (COL). The data set is classed as cell-based. As to the method: as §1, §2
In data set [9] the test system is Staphylococcus aureus NRS119. It counts as cell-based. As to the method: as §1, §2
Data set [10] relates to Staphylococcus aureus VAN1. It counts as cell-based. The protocol:
as §1, §2

For data set [11], the system named is Staphylococcus aureus VAN2. It counts as cell-based. The protocol: as §1, §2
The mark [12] stands for this setting: Table 7A, MRSA, vancomycin-resistant.

Values after ≈ are worked out from the molar mass of the structure shown. Numbered stars: 1 amine (or outer) side, 2 acyl side, 3 side chain; on linkers, the order of the positions; unused ones are H or OH. Square brackets hold non-standard residues; d marks the D form. Peptide text beside a SMILES is read from it. X1 = CC(C)[C@H](C)N(CC(=O)[*:2])[*:1]; Nspe = C[C@H](NCC(=O)O)c1ccccc1; Nlys = NCCCCNCC(=O)O

The source of these data is US20100036088A1, “Selective poly-N-substituted glycine antibiotics” (priority 2008, published 2010).

What is called IC50 is the concentration that inhibits the measured activity by half.

In the data set with human erythrocytes, `CC(C)[C@H](C)N(CC(=O)N(CC(=O)N(CCCCN)CC(=O)N(CC(=O)N(CC(=O)N(CCCCN)CC(=O)N(CC(=O)N(CC(=O)N(CCCCN)CC(=O)N(CC(=O)N(CC(N)=O)[C@@H](C)c1ccccc1)[C@@H](C)C(C)C)[C@@H](C)c1ccccc1)[C@@H](C)C(C)C)[C@@H](C)c1ccccc1)[C@@H](C)C(C)C)[C@@H](C)c1ccccc1)C(=O)CNCCCCN` [1-Nsdp2,5,8,11, H-(Nlys-Nsdp-Nspe)4-NH2] (H-[Nlys][X1][Nspe][Nlys][X1][Nspe][Nlys][X1][Nspe][Nlys][X1][Nspe]-NH2) displayed an HD10 of 111 µM and an HD50 of over 200 µM. Besides, in data set [1], the IC50 was 20 µM. In addition, in data set [2], the “MIC Enterobacter aerogenes ATCC 35029” value was 19.0 µM (≈ 32 µg/mL). The “MIC E. aerogenes ATCC 35029” value in [2] (Table 7A) worked out at 32 µg/mL (≈ 19 µM). Further, the “MIC Enterococcus faecalis 99” value against Enterococcus faecalis 99 came out at 38.0 µM (≈ 64 µg/mL). The “MIC E. faecalis 99” value with Enterococcus faecalis 99 (Table 7A) is 64 µg/mL (≈ 38 µM). For the same compound, the “MIC Enterococcus faecium 106” value against Enterococcus faecium 106 was found to be 2.4 µM (≈ 4.04 µg/mL). For the same compound, the “MIC E. faecium 106” value against Enterococcus faecium 106 (Table 7A) came to 4 µg/mL (≈ 2.38 µM). Also, in data set [3], the “MIC P. mirabilis ATCC 35659” value is over 128 µg/mL and the “MIC Proteus mirabilis ATCC 35659” value is over 76.0 µM. Also, the “MIC Proteus vulgaris ATCC 49132” value in data set [4] is 19.0 µM (≈ 32 µg/mL). In addition, in data set [4] (Table 7A), the “MIC P. vulgaris ATCC 49132” value worked out at 32 µg/mL (≈ 19 µM). In addition, the “MIC Pseudomonas aeruginosa ATCC 27853” value in data set [5] came to 9.5 µM (≈ 16 µg/mL). Besides, in data set [5] (Table 7A), the “MIC P. aeruginosa ATCC 27853” value amounted to 16 µg/mL (≈ 9.51 µM). Further, in [6], the “MIC S. marcescens ATCC 13880” value is over 128 µg/mL and the “MIC Serratia marcescens ATCC 13880” value is over 76.0 µM. For the same compound, in data set [7], the “MIC Staphylococcus aureus ATCC 29213” value turned out to be 4.8 µM (≈ 8.08 µg/mL). In addition, the “MIC S. aureus ATCC 29213” value in [7] (Table 7A) is 8 µg/mL (≈ 4.75 µM). For the same compound, the “MIC Staphylococcus aureus NRS100 (COL)” value in data set [8] came out at 4.8 µM (≈ 8.08 µg/mL). In data set [8] (Table 7A, MRSA), the “MIC S. aureus NRS100 (COL)” value turned out to be 8 µg/mL (≈ 4.75 µM). The “MIC Staphylococcus aureus NRS119” value in data set [9] stood at 9.5 µM (≈ 16 µg/mL). The “MIC S. aureus NRS119” value in data set [9] (Table 7A, linezolid-resistant) came to 16 µg/mL (≈ 9.51 µM). For the same compound, the “MIC S. aureus VAN1” value in [10] (setting [12]) was 8 µg/mL (≈ 4.75 µM). Besides, the “MIC Staphylococcus aureus VAN1” value in data set [10] is 4.8 µM (≈ 8.08 µg/mL). In data set [11] (setting [12]), the “MIC S. aureus VAN2” value stood at 8 µg/mL (≈ 4.75 µM). The “MIC Staphylococcus aureus VAN2” value in [11] came out at 4.8 µM (≈ 8.08 µg/mL).
In the case of `C[C@@H](c1ccccc1)N(CC(N)=O)C(=O)CN(C(=O)CN(CCCCN)C(=O)CN(C(=O)CN(C(=O)CN(CCCCN)C(=O)[C@@H]1CCCN1C(=O)CN(C(=O)CN(CCCCN)C(=O)CN(C(=O)CN(C(=O)CNCCCCN)[C@@H](C)c1ccccc1)[C@@H](C)c1ccccc1)[C@@H](C)c1ccccc1)[C@@H](C)c1ccccc1)[C@@H](C)c1ccccc1)[C@@H](C)c1ccccc1` [1-Pro6, H-Nlys-Nspe-Nspe-Nlys-Nspe-L-Pro-(Nlys-Nspe-Nspe)2-NH2] (H-[Nlys][Nspe][Nspe][Nlys][Nspe]P[Nlys][Nspe][Nspe][Nlys][Nspe][Nspe]-NH2), in the data set on human erythrocytes, the HD10 was found to be 83 µM and the HD50 is over 200 µM. Besides, in the data set with human erythrocytes (red cells of human, 1 h), the “HD10 (10% hemolytic dose)” value was determined as 63 µM and the “HD50 (50% hemolytic dose)” value was over 110 µM. In data set [1], this compound gave an IC50 of 18 µM. Also, the “MIC Enterobacter aerogenes ATCC 35029” value in data set [2] was 72.9 µM (≈ 128 µg/mL). Moreover, in the data set on Enterococcus faecalis 99, the “MIC Enterococcus faecalis 99” value came to 36.5 µM (≈ 64.1 µg/mL). Further, the “MIC Enterococcus faecium 106” value in the data set on Enterococcus faecium 106 came to 2.3 µM (≈ 4.04 µg/mL). Further, in data set [3], the “MIC P. mirabilis ATCC 35659” value was over 128 µg/mL and the “MIC Proteus mirabilis ATCC 35659” value was over 72.9 µM. Besides, in data set [4], the “MIC Proteus vulgaris ATCC 49132” value is 18.2 µM (≈ 31.9 µg/mL). Further, in [5], the “MIC Pseudomonas aeruginosa ATCC 27853” value turned out to be 18.2 µM (≈ 31.9 µg/mL). In addition, in data set [6], the “MIC S. marcescens ATCC 13880” value was over 128 µg/mL and the “MIC Serratia marcescens ATCC 13880” value was over 72.9 µM. Moreover, in data set [7], the “MIC Staphylococcus aureus ATCC 29213” value came out at 4.6 µM (≈ 8.07 µg/mL). For the same compound, the “MIC Staphylococcus aureus NRS100 (COL)” value in data set [8] was found to be 4.6 µM (≈ 8.07 µg/mL). Moreover, the “MIC Staphylococcus aureus NRS119” value in data set [9] amounted to 9.1 µM (≈ 16 µg/mL). Besides, the “MIC Staphylococcus aureus VAN1” value in data set [10] amounted to 4.6 µM (≈ 8.07 µg/mL). Besides, in [11], the “MIC Staphylococcus aureus VAN2” value turned out to be 4.6 µM (≈ 8.07 µg/mL).
